Measurements as given in US20260258378A1, “GLYCOSYLTRANSFERASE ENGINEERING FOR CHEMOENZYMATIC TOTAL SYNTHESIS OF GANGLIOSIDES” (priority 2022, published 2026).

Columns and labels:
Type in all cases: biochemical, Campylobacter jejuni
[1] = tested on: MBP-CjCgtBΔ30-His6; experiment: Effects of divalent metal cations, EDTA and DTT on enzyme activity; details: pH 7.5, Tris-HCl buffer (100 mM); DTT 10 mM
Procedure: (§1) The enzymatic assays were carried out in duplicate at 37° C. for 10 minutes in a reaction mixture (10 μL) containing the donor substrate (1.5 mM, UDP-GalNAc for MBP-Δ15CjCgtA-His6 and UDP-Gal for MBP-CjCgtBΔ30-His6), an acceptor substrate (1 mM, GM3βNHCbz for MBP-Δ15CjCgtA-His6 and GM2βNHCbz for MBP-CjCgtBΔ30-His6), Tris-HCl buffer (100 mM, pH 7.5), a metal cation (10 mM, MgCl2 for MBP-Δ15CjCgtA-His6 and MnCl2 for MBP-CjCgtBΔ30-His6), and the enzyme (0.32 μM for MBP-Δ15CjCgtA-His6 and 4 μM for MBP-CjCgtBΔ30-His6). The reactions were stopped by adding 10 μL of ice-cold methanol followed by incubation of the mixture on ice for 20 minutes and centrifugation at 16200 g for 5 minutes. The supernatant (about 20 μL) was transferred into another tube containing ddH2O (40 μL) and the resulting mixture was analyzed by liquid chromatography-mass spectrometry (LC-MS) (SHIMADZU LCMS-2020 system with electrospray ionization) for confirming the product and ultra-high-performance liquid chromatography (UHPLC) (monitored at 215 nm on an Agilent Infinity 1290 II HPLC system equipped with 1260 Infinity II Diode Array Detector WR) for reaction yield determination. The column used for the UHPLC analysis was Dionex™ CarboPac™ PA-100 (1.8 μm particle, 4×250 mm, Thermo Scientific, CA) for both glycosyltransferases. A gradient flow (100% water to 70% water/30% 1 M NaCl in 16 min) was used for analyzing the reactions catalyzed by MBP-Δ15CjCgtA-His6 and a different gradient flow (100% water to 75% water/[…] in 16 min) was used for analyzing MBP-CjCgtBΔ30-His6-catalyzed reactions. The flow rate was 0.75 mL min^−1.
(§2) The effect of various metal ions, the chelating reagent EDTA, and the reducing reagent DTT on the enzyme activity of MBP-Δ15CjCgtA-His6 and MBP-CjCgtBΔ30-His6 were examined at pH 7.5 in a Tris-HCl buffer (100 mM). Reactions without metal ions were used as controls.

[2] = tested on: MBP-Δ15CjCgtA-His6; experiment: as above; details: pH 7.5, Tris-HCl buffer (100 mM); DTT 10 mM
Procedure: as §1, §2

[3] = tested on: MBP-Δ15CjCgtA-His6; experiment: Effects of detergents on MBP-Δ15CjCgtA-His6-catalyzed OPME formation of GM2βSph; details: glycosphingosine acceptor, HRMS; sodium cholate 8-10 mM; Triton X-100 10 mM
Procedure: Assays were carried out at 30° C. for 12 hours in a total volume of 10 μL in Tris-HCl buffer (100 mM, pH 7.5) containing a GM3βSph (10 mM), GalNAc (15 mM), ATP (15 mM), UTP (15 mM), MgCl2 (20 mM), BLNahK (2 μg), PmGlmU (2 μg), MBP-Δ15CjCgtA-His6 (3 μg), PmPpA (1 μg), and various concentrations (0, 1, 2, 4, 5, 8, 10, 15, 18 mM) of sodium cholate or Triton X-100 (1, 5, 10, 15 mM). Reactions were quenched by addition of 10 μL of pre-chilled ethanol and the mixtures were incubated at 0° C. for 30 min, centrifuged, and the supernatant were analyzed by high resolution mass spectrometry (HRMS).
(§3) Glycosphingosines are much weaker acceptor substrates than the corresponding glycans for both CjCgtA and CjCgtB. This property made it prohibitive for synthesizing GM2βSph and GM1βSph in large-scales using the OPME strategy. […] The effects of these detergents in influencing the activities of both MBP-Δ15CjCgtA-His6 and MBP-CjCgtBΔ30-His6 in using glycosphingosine acceptor substrates and the reactions were analyzed by high-resolution mass spectrometry (HRMS).

[4] = tested on: MBP-CjCgtBΔ30-His6; experiment: Effects of detergents on MBP-CjCgtBΔ30-His6 with glycosphingosine acceptor substrates; details: HRMS, sodium cholate 8-10 mM, Triton X-100 10 mM
Procedure: as §3

Compound | effect on the enzyme activity of MBP-CjCgtBΔ30-His6 [1] | effect on the enzyme activity of MBP-Δ15CjCgtA-His6 [2] | effect of detergent on reaction yield / enzyme activity [3] | effect of detergent on reaction yield / enzyme activity [4]
O[C@H](CS)[C@H](O)CS (racemic) [dithiothreitol] | improved the activity | deactivated |  | 
[Ca+2] [Ca^2+] | not | suitable |  | 
[Mg+2] [Mg^2+] | less effective | equally effective |  | 
[Mn+2] [Mn^2+] | preferred cation |  |  | 
C[C@H](CCC(=O)[O-])[C@H]1CC[C@H]2[C@@H]3[C@H](O)C[C@@H]4C[C@H](O)CC[C@]4(C)[C@H]3C[C@H](O)[C@]12C.[Na+] [sodium cholate] |  |  | greatly enhanced | greatly enhanced
Triton X-100 |  |  | improved | improved
